Measurements from patent US8933290B2, “Mesh implant” (Sofradim Production SAS, priority 2007, dated 2015).

Tested on: classical pathway of the complement system
Assay: Anti-complement activity, CH50 hemolytic assay in total human serum
Type: biochemical
Conditions: in solution, sheep erythrocytes
Description: The anti-complement activity of fucans was tested via a CH50 test, a standard hemolytic assay in total human serum. Complement activation in human serum was induced by the introduction of sheep erythrocytes coated with rabbit antibodies and then recognized as foreign elements. […] The amount of released hemoglobin was then determined by an optical density (OD) measurement at about 414 nm. The human serum dilution was adjusted for a known amount of erythrocytes, in order to lyse about 50% of the red blood cells (CH50). In order to check the impact of the fucan on the complement activation in solution, the fucan was added with the sheep erythrocytes. […] Heparin (heparin […] 173 UI/mg, Choay-Sanofi) and fucan […] RED synthesized in the Laboratoire de Recherche sur les Macromolecules (LRM, CNRS UMR 7540, France) were also tested instead of fucan.

Question: How did the “IC50 (median inhibition concentration), anti-complement activity” value turn out when heparin [heparin H108] was run?
Answer: about 30 μg/mL
